In patent US8946142B2, “Beta-arrestin effectors and compositions and methods of use thereof” (Trevena, Inc., priority 2012, dated 2015):
Where a SMILES comes first, the peptide text is derived from it. [ ]: non-standard residue; d: D form. Ac6c = NC1(C(=O)O)CCCCC1; Sar = CNCC(=O)O

Experiments:
Type in all cases: cell-based
human AT1R [1] = biological target: T1, human AT1R (Homo sapiens, UniProt P30556); assay: IP1 accumulation assay (IP1 G-protein assay), human AT1R; conditions: for Emax: read-out: Span (relative to hAngII)
T1 sequence (P30556 1-359): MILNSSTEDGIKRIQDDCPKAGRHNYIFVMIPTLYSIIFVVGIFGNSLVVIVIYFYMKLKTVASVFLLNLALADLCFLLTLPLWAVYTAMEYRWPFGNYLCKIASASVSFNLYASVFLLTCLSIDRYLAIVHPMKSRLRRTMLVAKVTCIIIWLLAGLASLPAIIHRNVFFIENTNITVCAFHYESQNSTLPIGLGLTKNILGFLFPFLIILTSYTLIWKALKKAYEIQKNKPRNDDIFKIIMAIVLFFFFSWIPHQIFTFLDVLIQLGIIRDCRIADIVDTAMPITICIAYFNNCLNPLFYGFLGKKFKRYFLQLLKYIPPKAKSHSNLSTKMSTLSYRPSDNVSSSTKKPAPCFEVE
Protocol: (§1) A secondary measure of G protein coupling efficacy was also performed. IP3 is generated by activation of phospholipase C by Gα-q. IP3 is degraded to IP1, which can be forced to accumulate in cells by blocking degradation with lithium chloride. Thus we measured accumulation of IP1 to determine ligand efficacy for G protein activation.
(§2) IP1 accumulation generated by human and rat angiotensin 2 type 1 receptor (human AT1R and rat AT1aR, respectively) was measured with IP-One Tb kits purchased from Cisbio and used per the manufacturer's instructions. Clonal stably transfected cell lines expressing human AT1TR or rat AT1aR were used for all experiments.
(§3) For assays, 4,000-8,000 cells were seeded per well in 384-well small-volume microplates “HiBase” small-volume plate in volumes of 20 uL and allowed to grow overnight at 37° C. in 5% CO2. Cell growth media was then replaced with stimulation buffer supplied by Cisbio containing 50 mM lithium chloride. […] For agonist detection, peptides were then further diluted in stimulation buffer to add peptide to the cells to reach final concentrations ranging from 100 uM to 1 pM. Following addition of peptides, cells were incubated at 37° C. in 5% CO2 for 30 minutes and then lysed with 4 uL of pre-mixed HTRF IP-One reagents diluted per manufacturer's instructions (Cisbio). Microplates were incubated for 60-90 minutes at room temperature and then time-resolved fluorescence intensities were measured using a PHERAstar Plus microplate reader from BMG Labtech. IP1 accumulation was measured as change in ratio of time-resolved fluorescent intensities measured at 665 nm and 620 nm.

rat AT1aR [2] = biological target: T2, rat AT1aR (Rattus norvegicus, UniProt P25095); assay: IP1 accumulation assay (IP1 G-protein assay), rat AT1aR; conditions: for Emax: read-out: Span (relative to hAngII)
T2 sequence (P25095 1-359): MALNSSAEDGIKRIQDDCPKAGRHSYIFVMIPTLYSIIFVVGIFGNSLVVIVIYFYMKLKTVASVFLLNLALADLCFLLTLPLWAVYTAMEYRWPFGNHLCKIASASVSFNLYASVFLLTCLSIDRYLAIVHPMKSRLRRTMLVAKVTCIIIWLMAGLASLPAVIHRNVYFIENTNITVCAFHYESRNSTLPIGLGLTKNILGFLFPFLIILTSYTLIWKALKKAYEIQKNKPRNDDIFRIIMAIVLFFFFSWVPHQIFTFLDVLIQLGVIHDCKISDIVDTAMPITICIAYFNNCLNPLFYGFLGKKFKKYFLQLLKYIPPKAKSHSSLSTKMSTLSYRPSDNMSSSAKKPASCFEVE
Protocol: as §1, §2, §3

human AT1R [3] = biological target: T1, human AT1R; assay: beta-arrestin2 recruitment assay (PathHunter), human AT1R; conditions: for Emax: 1 h, read-out: Span (relative to hAngII)
Protocol: (§4) The proximal event in β-arrestin function mediated by GPCRs is recruitment to receptors following ligand binding and receptor phosphorylation by GRK's. Thus, the measure of β-arrestin recruitment was used to determine ligand efficacy for β-arrestin function.
(§5) B-arrestin-2 recruitment to the human and rat angiotensin 2 type 1 receptor (human AT1R and rat AT1aR, respectively) was measured with the PathHunter™ μl-arrestin assay (DiscoveRx Corporation, Fremont Calif.). Cells, plasmid(s), and detection reagent(s) were purchased from DiscoveRx, and assays were performed per manufacturer's instructions. Human AT1R and rat AT1aR were cloned into the pCMV-ProLink vector, verified by sequencing, and transfected into PathHunter β-arrestin HEK293 cells. Stably transfected clonal cell lines were selected with Hygromycin and G418. These clonal cell lines were used for all experiments.
(§6) For assays, 4,000-8,000 cells were seeded per well in 384-well microplates “HiBase” small-volume plate in volumes of 20 uL and grown overnight in the incubator (37° C., 5% CO2, saturated humidity). Peptides were dissolved in DMSO to a concentration of 10 mM. Peptides were then further diluted in assay buffer (Hank's balanced salt solution with 20 mM HEPES) to add peptide to the cells to reach final concentrations ranging from 100 μM to 1 pM. Cells were then incubated for 60 minutes at 37° C. in 5% CO2, followed by addition of 2 μL of PathHunter Detection Reagent to each well. The microplates were then incubated at room temperature for 60 minutes, and then luminescence was measured using a PHERAstar Plus microplate reader from BMG Labtech. B-arrestin-2 recruitment to receptors was measured as relative luminescence intensity expressed in arbitrary units.

rat AT1aR [4] = biological target: T2, rat AT1aR; assay: beta-arrestin2 recruitment assay (PathHunter), rat AT1aR; conditions: for Emax: 1 h, read-out: Span (relative to hAngII)
Protocol: as §4, §5, §6

Compound | Emax (human AT1R [1]) [%] | Emax (rat AT1aR [2]) [%] | Emax (human AT1R [3]) [%] | Emax (rat AT1aR [4]) [%] | EC50 (human AT1R [1]; read-out: EC50) [nM] | EC50 (human AT1R [1]; read-out: pEC50 (converted)) [nM] | EC50 (rat AT1aR [2]; read-out: EC50) [nM] | EC50 (rat AT1aR [2]; read-out: pEC50 (converted)) [nM] | EC50 (human AT1R [3]; read-out: EC50) [nM] | EC50 (human AT1R [3]; read-out: pEC50 (converted)) [nM] | EC50 (rat AT1aR [4]; read-out: EC50) [nM] | EC50 (rat AT1aR [4]; read-out: pEC50 (converted)) [nM]
CNCC(=O)N[C@@H](CCCNC(=N)N)C(=O)N[C@H](C(=O)N[C@@H](Cc1ccc(O)cc1)C(=O)N1CCC[C@H]1C(=O)N[C@@H](Cc1c[nH]cn1)C(=O)N1CCC[C@H]1C(=O)N[C@@H](CC(C)C)C(=O)O)C(C)C [SEQ ID NO: 5, Sar-Arg-Val-Tyr-Pro-His-Pro-Leu] (H-[Sar]RVYPHPL-OH; N-terminus and C-terminus assumed) | < 103 | < 104 | < 101 | < 105 |  |  |  |  |  |  |  | 
CNCC(=O)N[C@@H](CCCNC(=N)N)C(=O)N[C@H](C(=O)N[C@@H](Cc1ccc(O)cc1)C(=O)N1CCC[C@H]1C(=O)N[C@@H](Cc1c[nH]cn1)C(=O)N1CCC[C@H]1C(=O)N[C@H](C(=O)O)C(C)C)C(C)C [SEQ ID NO: 6, Sar-Arg-Val-Tyr-Pro-His-Pro-Val] (H-[Sar]RVYPHPV-OH; N-terminus and C-terminus assumed) | < 103 | < 104 | < 101 | < 105 |  |  |  |  |  |  |  | 
CNCC(=O)N[C@@H](CCCNC(=N)N)C(=O)N[C@H](C(=O)N[C@@H](Cc1ccc(O)cc1)C(=O)N1CCC[C@H]1C(=O)N[C@@H](Cc1c[nH]cn1)C(=O)N1CCC[C@H]1C(=O)N[C@H](C(=O)O)[C@@H](C)O)C(C)C [SEQ ID NO: 7, Sar-Arg-Val-Tyr-Pro-His-Pro-Thr] (H-[Sar]RVYPHPT-OH) |  |  | < 101 | < 105 | > 10000 | > 0.631 | > 0.6 | > 0.631 | > 3.2 | > 3.16 | > 3.2 | > 3.16
CNCC(=O)N[C@@H](CCCNC(=N)N)C(=O)N[C@H](C(=O)N[C@@H](Cc1ccc(O)cc1)C(=O)N1CCC[C@H]1C(=O)N[C@@H](Cc1c[nH]cn1)C(=O)N1CCC[C@H]1C(=O)N[C@@H](CCSC)C(=O)O)C(C)C [SEQ ID NO: 9, Sar-Arg-Val-Tyr-Pro-His-Pro-Met] (H-[Sar]RVYPHPM-OH; N-terminus and C-terminus assumed) | < 103 | < 104 | < 101 | < 105 |  |  |  |  |  |  |  | 
CNCC(=O)N[C@@H](CCCNC(=N)N)C(=O)N[C@H](C(=O)N[C@@H](Cc1ccc(O)cc1)C(=O)N1CCC[C@H]1C(=O)N[C@@H](Cc1c[nH]cn1)C(=O)N1CCC[C@H]1C(=O)N[C@@H](Cc1ccccc1)C(=O)O)C(C)C [SEQ ID NO: 10, Sar-Arg-Val-Tyr-Pro-His-Pro-Phe] (H-[Sar]RVYPHPF-OH; N-terminus and C-terminus assumed) | < 103 | < 104 | < 101 | > 105 |  |  |  |  |  |  |  | 
CC[C@H](C)[C@H](NC(=O)[C@@H]1CCCN1C(=O)[C@H](Cc1c[nH]cn1)NC(=O)C1(NC(=O)[C@H](Cc2ccc(O)cc2)NC(=O)[C@@H](NC(=O)[C@H](CCCNC(=N)N)NC(=O)CNC)C(C)C)CCCCC1)C(=O)O [SEQ ID NO: 11, Sar-Arg-Val-Tyr-cyHex-His-Pro-Ile] (H-[Sar]RVY[Ac6c]HPI-OH) | < 103 |  | < 101 | < 105 | > 1.3 | > 0.631 | > 0.6 | > 0.631 | > 3.2 | > 3.16 | > 3.2 | > 3.16
CNCC(=O)N[C@@H](CCCNC(=N)N)C(=O)N[C@H](C(=O)N[C@@H](Cc1ccc(O)cc1)C(=O)NC1(C(=O)N[C@@H](Cc2c[nH]cn2)C(=O)N2CCC[C@H]2C(=O)N[C@@H](CC(C)C)C(=O)O)CCCCC1)C(C)C [SEQ ID NO: 12, Sar-Arg-Val-Tyr-cyHex-His-Pro-Leu] (H-[Sar]RVY[Ac6c]HPL-OH) | < 103 | < 104 | < 101 | < 105 | > 1.3 | > 0.631 | > 0.6 | > 0.631 | > 3.2 | > 3.16 | > 3.2 | > 3.16
CNCC(=O)N[C@@H](CCCNC(=N)N)C(=O)N[C@H](C(=O)N[C@@H](Cc1ccc(O)cc1)C(=O)NC1(C(=O)N[C@@H](Cc2c[nH]cn2)C(=O)N2CCC[C@H]2C(=O)N[C@H](C(=O)O)C(C)C)CCCCC1)C(C)C [SEQ ID NO: 13, Sar-Arg-Val-Tyr-cyHex-His-Pro-Val] (H-[Sar]RVY[Ac6c]HPV-OH) |  |  | 103 | < 105 | > 1.3 | > 0.631 | > 0.6 | > 0.631 | > 3.2 | > 3.16 | > 3.2 | > 3.16
CNCC(=O)N[C@@H](CCCNC(=N)N)C(=O)N[C@H](C(=O)N[C@@H](Cc1ccc(O)cc1)C(=O)NC1(C(=O)N[C@@H](Cc2c[nH]cn2)C(=O)N2CCC[C@H]2C(=O)N[C@H](C(=O)O)[C@@H](C)O)CCCCC1)C(C)C [SEQ ID NO: 14, Sar-Arg-Val-Tyr-cyHex-His-Pro-Thr] (H-[Sar]RVY[Ac6c]HPT-OH) |  |  | < 101 | < 105 | > 1.3 | > 0.631 | > 0.6 | > 0.631 | > 3.2 | > 3.16 | > 3.2 | > 3.16
CNCC(=O)N[C@@H](CCCNC(=N)N)C(=O)N[C@H](C(=O)N[C@@H](Cc1ccc(O)cc1)C(=O)NC1(C(=O)N[C@@H](Cc2c[nH]cn2)C(=O)N2CCC[C@H]2C(=O)N[C@@H](CO)C(=O)O)CCCCC1)C(C)C [SEQ ID NO: 15, Sar-Arg-Val-Tyr-cyHex-His-Pro-Ser] (H-[Sar]RVY[Ac6c]HPS-OH) |  | < 104 | < 101 | < 105 | > 1.3 | > 0.631 | > 0.6 | > 0.631 | > 3.2 | > 3.16 | > 3.2 | > 3.16
CNCC(=O)N[C@@H](CCCNC(=N)N)C(=O)N[C@H](C(=O)N[C@@H](Cc1ccc(O)cc1)C(=O)NC1(C(=O)N[C@@H](Cc2c[nH]cn2)C(=O)N2CCC[C@H]2C(=O)N[C@@H](CCSC)C(=O)O)CCCCC1)C(C)C [SEQ ID NO: 16, Sar-Arg-Val-Tyr-cyHex-His-Pro-Met] (H-[Sar]RVY[Ac6c]HPM-OH) | < 103 | < 104 | < 101 | < 105 | > 1.3 | > 0.631 | > 0.6 | > 0.631 | > 3.2 | > 3.16 | > 3.2 | > 3.16
